Legend:
a3b4 nAChRs = a3b4 nAChRs (Homo sapiens, UniProt P30926+P32297); test: Relative potency at a3b4 nAChRs, epibatidine-induced calcium response; format: cell-based
Description: The HEK293 (a3b4, a4b2 and a7) and SH-SY5Y cell lines (a3b4) expressing nAChRs are used. Validated assays optimized with respect to sensitivity, dynamic range, signal intensity and stability for chemical probe validation and SAR refinement are used.
Nicotinic functional assays are performed using the Molecular Devices FLIPR® Calcium 5 Assay Kit. HEK293 cells overexpressing α3β4, α4β2 or α7 (50,000 cells per well in 100 μl growth media) and are plated in clear bottom black walled 96-well microplates and incubated for 24-48 hours at 37° C., 5% CO2 until a 80-90% confluent monolayer is formed. On the day of the assay, 100 μl of Calcium 5 Dye is added to each well. Following addition of dye, cells are incubated at 25° C. for 60 minutes. Following dye loading, 50 μl of a 5× solution of reference or test compound of appropriate concentration range (0.01-30 μM), prepared in 20 mM HEPES pH 7.4 in HBSS, is added to each well. Plates are then transferred to the Molecular Devices Flexstation® which transfers 50 μL of a 5× solution (500 nM) of epibatine to each well to initiate the Ca+2 flux. Additional wells (in quadruplicate) are prepared with no added test or reference ligand for measurement of 100% flux. The RFU (relative fluorescence units) in the presence of the test or reference compounds is then expressed on the percent scale. The percent inhibition of epibatidine induced Ca^+2 flux is calculated as follows: % inhibition=100%−% RFU (relative fluorescence units). The IC50 values for reference and test compounds are obtained by fitting normalized RFU data using Graphpad Prism software.

[1] = CNS penetration across the blood brain barrier; set-up: species or system mice; conditions: mouse, in vivo
Description: Mice are dosed with compounds. Brain to blood ratios are determined by HPLC and LC/MS/MS analysis following oral administration of the test compounds in mice.

[2] = system: panel of over 50 receptors, transporters, ion channels, second messengers, growth factor receptors and enzymes; test: Binding panel at physiologically relevant concentrations
From the text: The association between cigarette smoking and the presence and severity of suicidal behavior across major psychiatric disorders may be related to lower brain serotonin function in smokers with depression).

[3] = biological target: T1, kappa opioid receptor (kOR) (Homo sapiens, UniProt P41145); test: Kappa opioid receptor binding; conditions: read-out: Affinity at kappa opioid receptor
T1 construct: expressed in transfected cells; host or cells: CHO or HEK293 (membranes)
T1 sequence (P41145 whole entry): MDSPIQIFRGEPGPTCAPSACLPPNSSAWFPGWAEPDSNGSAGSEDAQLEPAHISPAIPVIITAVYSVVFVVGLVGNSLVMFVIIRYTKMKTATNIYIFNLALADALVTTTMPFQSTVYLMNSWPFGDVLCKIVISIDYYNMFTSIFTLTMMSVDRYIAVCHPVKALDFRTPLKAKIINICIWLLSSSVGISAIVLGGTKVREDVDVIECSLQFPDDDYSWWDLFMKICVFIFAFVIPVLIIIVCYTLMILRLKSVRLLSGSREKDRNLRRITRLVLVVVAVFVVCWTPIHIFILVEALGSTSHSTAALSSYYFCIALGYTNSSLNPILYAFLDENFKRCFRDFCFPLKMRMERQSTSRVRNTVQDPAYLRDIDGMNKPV
Description: Established radioligand binding methods are used to evaluate the ability of the compounds to block reuptake of scrotonin and dopamine in membrane preparations of synaptosomes. Equilibrium binding affinity values is determined for each compound at opioid receptors (μ and κ subtypes) and biogenic amine transporters (DAT and SERT). Where possible, binding experiments utilize membranes derived from CHO or HEK293 cells engineered to overexpress the human form of the receptor or transporter of interest. Radiolabeling of opioid receptors, and biogenic amine transporters utilizes conventional radioligands, buffers and incubation conditions according to published assays.
Test compounds, reference compounds and the radioligand (Kd value) are added to binding buffer. Assays are run with test or reference compound over a range of concentration (0.0001-10 uM) in triplicate using a 96-well sample plate containing radioligands specific for the target receptor or transporter. […] Bound radioactivity is counted in a Microbeta scintillation counter. Total bound radioactivity is estimated from triplicate wells containing no test or reference compound, together with nonspecific binding and filter blanks. The average bound radioactivity in the presence of the test compounds is expressed % inhibition=100%−% radioactivity bound. […]

Chain of a3b4 nAChRs (P32297 32-505): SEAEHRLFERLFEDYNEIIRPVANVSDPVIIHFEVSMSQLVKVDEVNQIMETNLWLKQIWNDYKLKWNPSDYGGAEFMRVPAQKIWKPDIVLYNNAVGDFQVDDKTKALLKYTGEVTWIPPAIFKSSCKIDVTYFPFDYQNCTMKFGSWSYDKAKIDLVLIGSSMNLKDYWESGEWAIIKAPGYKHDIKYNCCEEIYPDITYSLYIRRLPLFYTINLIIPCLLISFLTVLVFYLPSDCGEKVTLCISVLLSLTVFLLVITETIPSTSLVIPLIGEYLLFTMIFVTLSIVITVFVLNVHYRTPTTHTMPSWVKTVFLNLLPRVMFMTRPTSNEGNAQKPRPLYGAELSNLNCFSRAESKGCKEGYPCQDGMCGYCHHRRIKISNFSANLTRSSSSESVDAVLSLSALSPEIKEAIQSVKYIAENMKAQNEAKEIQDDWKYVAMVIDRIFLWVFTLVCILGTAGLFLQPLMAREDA
Chain of a3b4 nAChRs (P30926 22-498): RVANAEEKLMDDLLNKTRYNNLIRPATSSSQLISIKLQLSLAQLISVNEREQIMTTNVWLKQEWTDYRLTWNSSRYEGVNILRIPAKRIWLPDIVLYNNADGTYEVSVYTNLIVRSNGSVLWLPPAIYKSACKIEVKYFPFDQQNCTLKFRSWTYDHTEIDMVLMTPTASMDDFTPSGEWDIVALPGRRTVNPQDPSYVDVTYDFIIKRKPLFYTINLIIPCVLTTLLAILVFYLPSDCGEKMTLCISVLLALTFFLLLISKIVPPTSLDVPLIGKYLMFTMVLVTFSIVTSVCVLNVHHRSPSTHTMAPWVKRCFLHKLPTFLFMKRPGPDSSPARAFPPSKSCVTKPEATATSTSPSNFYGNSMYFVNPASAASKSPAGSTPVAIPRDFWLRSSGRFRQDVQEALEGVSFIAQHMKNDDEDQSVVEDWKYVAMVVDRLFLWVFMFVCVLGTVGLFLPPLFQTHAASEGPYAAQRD

| Compound | Potency as inhibitor of the epibatidine-induced calcium response compared with 18-MC and noribogaine (a3b4 nAChRs; a3b4 nAChRs) | Crossing of the BBB and brain concentration [1] | IC50 of the reference 18-MC behind the ratio (a3b4 nAChRs; a3b4 nAChRs, bracketed value in Table 4) | Ratio from 18-MC (a3b4 nAChRs; relative potency at a3b4 nAChRs, 18-MC = 1) | Targets bound in the panel [2] | Ki [3] |
| --- | --- | --- | --- | --- | --- | --- |
| Ibogaine | more potent inhibitors than 18-MC (18-methoxycoronaridine) and noribogaine | – | – | – | – | – |
| COCC[C@H]1CC2CN3CCc4c([nH]c5ccccc45)[C@](C(=O)OC)(C2)[C@H]13 [Compound 18-MC, 18-methoxycoronaridine] | – | cross the BBB and reach micromolar concentrations in brain | 4 µM | 1 | – | – |
| CC[C@H]1CC2C[C@H]3c4[nH]c5ccc(O)cc5c4CCN(C2)C13 [Noribogaine, 12-hydroxyibogamine] | – | cross the BBB and reach micromolar concentrations in brain | – | – | only bound to SERT, DAT, mu and kappa opioid receptors | 1 µM |
